The text below walks through data of US20240374546A1, “USES AND METHODS FOR PROMOTING INCREASED MITOCHONDRIAL MASS AND FUNCTION” (Brightseed, Inc., priority 2022, published 2024).

One data set relates to PPARγ mRNA. The data set is described as follows: qPCR mouse liver, PPARγ mRNA. It is filed as in vivo. The settings on record: HFD+NCT vs HFD; to the level of normal chow. On the procedure:
(§1) Total RNA was isolated from liver tissues and primary human hepatocytes using Trizol (Invitrogen). cDNA was amplified using 3 μg of total RNA using qScript cDNA SuperMix (Quanta BioSciences, Beverly, MA, USA). Quantitative real time PCR (RT-PCR) analysis was performed using SYBR® Select Master Mix (Applied Biosystems) and an ABI 7900HT thermal cycler (Applied Biosystems, Thermo Fisher Scientific). Ct values were normalized to 18s rRNA and are expressed as fold change over samples from mice fed NC or cultured human hepatocytes without NCT.

The subject of another data set is SDHA mRNA. The data set is described as follows: qPCR mouse liver, SDHA mRNA. It is filed as in vivo. The settings on record: HFD+NCT vs HFD. As to the method:
as §1
(Real-time PCR tracks product formation cycle by cycle.)

In another data set the test system is IL-6. Nature of the data set: ELISA for IL-6 secreted into medium of primary human hepatocytes. It is filed as cell-based. The settings on record: NCT 5, 15, 40 μM. On the procedure:
Experiments with primary human hepatocytes were performed by CN-Bio (Cambridge, UK). Briefly, primary human hepatocytes (PHHs), human Kupffer cells (HKs) and human stellate cells (HSCs) were seeded onto CN-Bio's PhysioMimix LC12 MPS culture plates at 6×10^5 cells for PHHs and 6×10^4 cells for HKs and HSCs in 1.6 ml of CN-Bio's HEP-lean media with 5% FCS. Throughout the experiment the cells were maintained at a flow rate of 1 μl/s. After 24 hours (Day 1) of seeding, the media was changed to HEP-lean media and the cells were incubated until day 4 to allow the cells to form microtissues. At day 4 post seeding, media was changed to HEP-fat media and treated with DMSO or NCT (5, 15, 40 μM). Media was replaced on days 6 and 8. Cells were harvested on day 10 for RNA extraction and culture media was collected for ELISA analysis.
On the technique in general: An ELISA detects its analyte on a solid surface through an enzyme-linked reagent.

As to `O=C(/C=C/c1ccc(O)c(O)c1)NCCc1ccc(O)cc1` [NCT, N-transcaffeoyltyramine], in the data set on PPARγ mRNA, the “PPARγ expression in mouse liver” value is “dramatically reduced”. For the same compound, in the data set on SDHA mRNA, the “SDHA mRNA in mouse liver” value is on record as “increased”. In addition, the “IL-6 protein secreted by cultured human hepatocytes” value in the data set on IL-6 is recorded as “reduced”.
